In ChEMBL document CHEMBL1150019, “Synthesis and antitumor activity of novel cyclopropapyrroloindole (CPI) derivatives bearing bis(methoxycarbonyl) groups” (Bioorg Med Chem Lett, 1997):
≈ marks a conversion by molar mass, not a printed value.

How the values were obtained:
Mus musculus [1] = assay: In vivo antitumor activity against P388 murine leukemia as percentage increase in life span as compared with the untreated at a dose of 0.125 mg/kg administered intraperitoneally; format: functional; conditions: P388, ip, route intraperitoneal
P388 = assay: Tested in vitro for cytotoxicity as concentration required to inhibit 50 percent growth of P388 murine leukemia cells; format: functional, cell-based; conditions: Mus musculus
Mus musculus [2] = assay: In vivo antitumor activity against P388 murine leukemia as percentage increase in life span as compared with the untreated at a dose of 0.063 mg/kg administered intraperitoneally; format: functional; conditions: P388, ip, route intraperitoneal
Mus musculus [3] = assay: In vivo antitumor activity against P388 murine leukemia as percentage increase in life span as compared with the untreated at a dose of 1 mg/kg administered intraperitoneally; format: functional; conditions: P388, ip, route intraperitoneal
Mus musculus [4] = assay: In vivo antitumor activity against P388 murine leukemia as percentage increase in life span as compared with the untreated at a dose of 0.5 mg/kg administered intraperitoneally; format: functional; conditions: P388, ip, route intraperitoneal
Mus musculus [5] = assay: In vivo antitumor activity against P388 murine leukemia as percentage increase in life span as compared with the untreated at a dose of 0.25 mg/kg administered intraperitoneally; format: functional; conditions: P388, ip, route intraperitoneal
Mus musculus [6] = assay: In vivo antitumor activity against P388 murine leukemia as percentage increase in life span as compared with the untreated at a dose of 0.625 mg/kg administered intraperitoneally; format: functional; conditions: P388, ip, route intraperitoneal

Row | SMILES | ILS at 0.125 mg/kg (Mus musculus [1]) [%] | IC50 (P388) [ng/mL] | also measured
1 | COC(=O)c1[nH]c2c(c1C(=O)OC)C13CC1CN(C(=O)c1cc4cc(OC)ccc4[nH]1)C3=CC2=O (stereo not drawn) | 49 | 0.63 (≈ 1.33 nM) | –
2 | COC(=O)c1[nH]c2c(c1C(=O)OC)C13CC1CN(C(=O)c1cc4cc(OC)c(OC)c(OC)c4[nH]1)C3=CC2=O (stereo not drawn) | – | 0.74 (≈ 1.38 nM) | ILS at 0.063 mg/kg (Mus musculus [2]): 43%
3 | COC(=O)c1[nH]c2c(O)cc3c(c2c1C(=O)OC)C(CCl)CN3C(=O)c1cc2cc(OC)ccc2[nH]1 (stereo not drawn) | – | 0.27 (≈ 0.527 nM) | ILS at 1 mg/kg (Mus musculus [3]): 43%
4 | COC(=O)c1[nH]c2c(O)cc3c(c2c1C(=O)OC)C(CCl)CN3C(=O)c1cc2cc(NC(=O)c3cc4ccccc4[nH]3)ccc2[nH]1 (stereo not drawn) | – | 0.24 (≈ 0.375 nM) | ILS at 0.5 mg/kg (Mus musculus [4]): 90%
5 | COC(=O)c1c(C)[nH]c2c(O)cc3c(c12)[C@H](CCl)CN3C(=O)c1cc2cc(OC)c(OC)c(OC)c2[nH]1 | – | 0.22 (≈ 0.417 nM) | ILS at 0.25 mg/kg (Mus musculus [5]): 74%
6 | COC(=O)c1[nH]c2c(c1C(=O)OC)C13CC1CN(C(=O)c1cc4cc(NC(=O)c5cc6ccccc6o5)ccc4[nH]1)C3=CC2=O (stereo not drawn) | 79 | – | –
7 | COC(=O)c1[nH]c2c(O)cc3c(c2c1C(=O)OC)C(CCl)CN3C(=O)c1cc2cc(OC)c(OC)c(OC)c2[nH]1 (stereo not drawn) | – | 0.31 (≈ 0.542 nM) | ILS at 1 mg/kg (Mus musculus [3]): 73%
8 | COC(=O)c1[nH]c2c(O)cc3c(c2c1C(=O)OC)C(CCl)CN3C(=O)c1cc2cc(NC(=O)c3cc4ccccc4o3)ccc2[nH]1 (stereo not drawn) | – | 0.32 (≈ 0.499 nM) | ILS at 0.625 mg/kg (Mus musculus [6]): 115%
9 | COC(=O)c1[nH]c2c(c1C(=O)OC)C13CC1CN(C(=O)c1cc4cc(NC(=O)c5cc6ccccc6[nH]5)ccc4[nH]1)C3=CC2=O (stereo not drawn) | 102 | – | –
10 | COC(=O)c1c(C)[nH]c2c1[C@@]13CC1CN(C(=O)c1cc4cc(OC)c(OC)c(OC)c4[nH]1)C3=CC2=O (mixture of isomers) | 80 | 0.34 | –
